Reference: PMC10043345, “Discovery of BAR502, as potent steroidal antagonist of leukemia inhibitory factor receptor for the treatment of pancreatic adenocarcinoma” (Frontiers in Oncology, 2023)

Legend:
MIA PaCa-2 cells = experiment: Annexin V flow cytometry (apoptosis); type: cell-based, human; settings: BAR502 10-20 µM + LIF 10 ng/mL; p<0.05
Method: MIA-PaCa2 cells were seeded in 6-well tissue culture plate (cell density 700 × 10^3/well) and cultured as specified above. Cells were serum-starved for 8 h and then incubated with LIF (10 ng/mL) alone or plus BAR502 (10, 20 µM) or a vehicle for 24 h. The intracellular flow cytometry staining for Ki-67 was performed using the following reagents: Ki-67 Monoclonal Antibody (SolA15), Alexa Fluor™ 488, (eBioscience™, San Diego, California, USA) and 7-AAD to characterize the cell cycle phases G0-G1 and S-G2-M. Before intracellular IC-FACS, staining cells were fixed for 30 min in the dark using IC Fixation buffer (eBioscience™) and then permeabilized using Permeabilization buffer (10X) (eBioscience™). The staining for Annexin V was performed using the Annexin V Antibody (A13199, Thermofisher Scientific, Waltham, MA, USA) to evaluate the apoptosis rate. Briefly, 5 μL of Annexin V Antibody was added to each 100 μL of cell suspension, and cells were incubated the at room temperature for 15 min. Flow cytometry analyses were carried out using a 3-laser standard configuration ATTUNE NxT (LIFe Technologies, Carlsbad, CA, USA). Data were analyzed using FlowJo software (TreeStar) and the gates set using a fluorescence minus-one (FMO) control strategy. […] The channel in which the conjugated Ab is missing is the one for which the fluorescence minus one provides a gating control.

hLIFR = target: T1, hLIFR (Homo sapiens, UniProt P42702); experiment: STAT3 transactivation in HepG2 cells transfected with hLIFR and CD130, stimulated with LIF; type: cell-based; settings: LIF 10 ng/mL, read-out: HepG2 LIFR Antagonism IC50 (STAT3 transactivation)
T1 sequence (P42702 45-1097): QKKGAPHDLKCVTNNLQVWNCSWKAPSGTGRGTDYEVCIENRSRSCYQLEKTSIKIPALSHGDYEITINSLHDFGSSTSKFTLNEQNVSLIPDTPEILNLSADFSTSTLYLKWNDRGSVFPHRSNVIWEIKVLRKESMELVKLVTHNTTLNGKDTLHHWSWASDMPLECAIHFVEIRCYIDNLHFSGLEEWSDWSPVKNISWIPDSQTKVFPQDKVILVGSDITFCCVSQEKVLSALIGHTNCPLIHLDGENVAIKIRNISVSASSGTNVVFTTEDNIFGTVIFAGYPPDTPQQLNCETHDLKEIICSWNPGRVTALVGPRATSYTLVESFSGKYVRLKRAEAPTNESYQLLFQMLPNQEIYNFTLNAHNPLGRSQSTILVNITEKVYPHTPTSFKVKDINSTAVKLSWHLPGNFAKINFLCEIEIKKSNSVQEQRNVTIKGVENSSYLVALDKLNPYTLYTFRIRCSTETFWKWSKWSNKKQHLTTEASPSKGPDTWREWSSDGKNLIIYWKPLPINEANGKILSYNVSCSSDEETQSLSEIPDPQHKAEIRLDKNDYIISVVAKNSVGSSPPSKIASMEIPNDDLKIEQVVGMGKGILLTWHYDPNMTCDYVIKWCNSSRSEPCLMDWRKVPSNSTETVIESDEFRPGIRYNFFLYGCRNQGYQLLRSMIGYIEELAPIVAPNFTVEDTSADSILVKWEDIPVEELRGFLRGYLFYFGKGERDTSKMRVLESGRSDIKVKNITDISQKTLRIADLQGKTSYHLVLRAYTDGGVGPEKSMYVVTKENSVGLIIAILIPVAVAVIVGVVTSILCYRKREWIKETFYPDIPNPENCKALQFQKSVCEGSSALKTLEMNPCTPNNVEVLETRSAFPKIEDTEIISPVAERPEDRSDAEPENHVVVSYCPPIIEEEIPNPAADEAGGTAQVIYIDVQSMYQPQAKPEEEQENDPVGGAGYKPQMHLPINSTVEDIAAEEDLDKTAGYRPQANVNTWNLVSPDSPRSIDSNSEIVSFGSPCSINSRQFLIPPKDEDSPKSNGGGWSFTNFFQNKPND
Method: On day 0, HepG2 were seeded at 7.5 × 10^4 cells/well in a 24-well plate and maintained at 37°C and 5% CO2 in E-MEM supplemented with 10% FBS, 1% glutamine, and 1% penicillin/streptomycin. On day 1, cells were transiently transfected with the reporter plasmid pGL4.47[luc2P/SIE/Hygro] (200 ng) (CAT#: E4041 Promega, Madison, WI, USA), a vector encoding the hLIFR (CAT# RC226327) (100 ng) and CD130 (IL6ST) (100 ng) (CAT#: RC215123, OriGene Technologies, Inc. Rockville, MD, USA), and finally a vector encoding the human RENILLA luciferase gene (pGL4.70) (100 ng) (Promega, Madison, WI, USA). On day 2, cells were exposed to the cytokine LIF (10 ng/mL) alone or in combination with BAR502 (from 0.1 to 20 μM). […] For FXR mediated transactivation, HepG2 cells were plated at 7.5 × 10^4 cells/well in a 24 well plate. Cells were transfected with 200 ng of the reporter vector p(hsp27)-TK-LUC containing a FXR response element (IR1) cloned from the promoter of heat shock protein 27 (hsp27), 100 ng of pSG5-FXR, 100 ng of pSG5-RXR, and 100 ng of pGL4.70 (Promega), a vector encoding the human Renilla gene. To perform STAT3 transactivation, HepG2 were seeded at 7.5× 10^4 cells/well in a 24-well plate. On the day-1, cells were transiently transfected with 200 ng of the reporter plasmid pGL4.47[luc2P/SIE/Hygro] […] Luminescence was measured using a Glomax 20/20 luminometer (Promega, Madison, WI, USA). […]

Structure (SMILES): CC[C@H]1[C@@H](O)C2C3CC[C@H]([C@H](C)CCO)[C@@]3(C)CCC2[C@@]2(C)CC[C@@H](O)C[C@@H]12 (some centres unmarked) [BAR502]
- effect on percentage of Annexin V+ cells (MIA PaCa-2 cells): increased the percentage of Annexin V^+ cells
- IC50 (hLIFR): 2730 nM
